Results reported in the NIST ThermoML archive (doi:10.1021/je900785z).
Numbers after ± are expanded uncertainties.

Details: 298.15 K; 101.33 kPa; Liquid
With `CC(C)CC(C)(C)C` [2,2,4-trimethylpentane] the mass density was 687.757 ± 0.84 kg/m3.
For `CCCCCCCCCC` [decane], the mass density was 726.357 ± 1.2 kg/m3.
With `CCCCCCC` [heptane] the mass density was 679.627 ± 0.85 kg/m3.
Work on `CCCCCCCCC` [nonane] yielded a mass density of 714.064 ± 1.3 kg/m3.
In the case of `CCCCCCCC` [octane], the mass density is reported as 698.636 ± 1.3 kg/m3.

Same assay, conditions: Crystal; visual observation
`O=C1CCCCCN1` [1-aza-2-cycloheptanone] gave a Normal melting temperature of 69.06 ± 0.39 °C.
